Reference: PMC5021374, “An Arginine Finger Regulates the Sequential Action of Asymmetrical Hexameric ATPase in the Double-Stranded DNA Translocation Motor” (Molecular and Cellular Biology, 2016)

Assays:
[1] = target: T1, gp16 ATPase (ϕ29 motor ATPase gp16) (Bacillus phage phi29, UniProt P11014); assay: fluorescent phosphate binding protein assay of ATP hydrolysis; type: biochemical; conditions: DNA-dependent ATPase; tag in this assay not stated
T1 construct: gene 16; full-length gp16 with tags: SUMO-gp16 (Trp fluorescence), His-gp16 (trypsin probing), eGFP-gp16 (EMSA; N-terminal eGFP); homohexamer, monomer/dimer mixture in solution
T1 sequence (P11014 1-332): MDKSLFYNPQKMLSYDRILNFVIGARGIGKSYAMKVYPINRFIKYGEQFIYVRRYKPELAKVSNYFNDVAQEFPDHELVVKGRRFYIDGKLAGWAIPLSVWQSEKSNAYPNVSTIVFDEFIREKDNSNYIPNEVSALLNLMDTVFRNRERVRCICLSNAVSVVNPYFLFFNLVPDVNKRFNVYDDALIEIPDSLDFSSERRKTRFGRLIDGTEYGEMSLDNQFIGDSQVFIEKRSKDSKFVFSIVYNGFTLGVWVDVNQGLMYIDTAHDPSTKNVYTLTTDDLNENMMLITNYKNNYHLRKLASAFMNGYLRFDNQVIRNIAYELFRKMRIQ

[2] = target: T1, gp16 ATPase (ϕ29 motor ATPase gp16); assay: intrinsic tryptophan fluorescence (SUMO-gp16); also trypsin probing (His-gp16); type: binding; conditions: 2 mM Tris pH 8.0, 0.005% Tween 20, 1.5% PEG 8000, 0.5% acetone; excitation 280 nm
[3] = target: T1, gp16 ATPase (ϕ29 motor ATPase gp16); assay: EMSA with 33-bp Cy5-dsDNA (nucleotide-dependent DNA binding; indirect); conditions: nonhydrolysable ATP analog; 33-bp Cy5-dsDNA present; ambient temperature, 20 min

Row | SMILES | fluorescent phosphate binding protein assay of ATP hydrolysis [1] | intrinsic tryptophan fluorescence (SUMO-gp16); also trypsin probing (His-gp16) [2] | EMSA with 33-bp Cy5-dsDNA (nucleotide-dependent DNA binding; indirect) [3]
1 | Nc1ncnc2c1ncn2[C@@H]1O[C@H](COP(=O)(O)OP(=O)(O)OP(=O)(O)O)[C@@H](O)[C@H]1O [ATP] | a phosphate binding protein conjugated to a fluorescent probe ... was used to assay ATP hydrolysis | both assays indicated a conformational change in the gp16-ATP complex | –
2 | Nc1ncnc2c1ncn2[C@@H]1O[C@H](COP(=O)(O)OP(=O)(O)OP(O)(O)=S)[C@@H](O)[C@H]1O [γ-S-ATP] | – | – | Stronger binding of gp16 to dsDNA was observed when gp16 was incubated with γ-S-ATP
